Results from ChEMBL document CHEMBL4340567, “Generation of C5-desoxy analogs of tetrahydroisoquinoline alkaloids exhibiting potent DNA alkylating ability” (Bioorg Med Chem Lett, 2019).
The source made the active and inactive calls. The calls are words filed in the database; no cut-off is given here.

Experiments:
[1] = Induction of alkylation in fluorescein-labelled 5'-GGG-3' double stranded DNA (unknown origin) at 100 uM incubated for 30 mins by EMSA relative to control
[2] = Induction of alkylation in fluorescein-labelled 5'-GGC-3' double stranded DNA (unknown origin) at 100 uM incubated for 30 mins by EMSA relative to control
[3] = Induction of alkylation in fluorescein-labelled 5'-CGG-3' double stranded DNA (unknown origin) at 100 uM incubated for 30 mins by EMSA relative to control
[4] = Induction of alkylation in fluorescein-labelled 5'-AGC-3' double stranded DNA (unknown origin) at 100 uM incubated for 30 mins by EMSA relative to control
[5] = Induction of alkylation in fluorescein-labelled 5'-AGT-3' double stranded DNA (unknown origin) at 100 uM incubated for 30 mins by EMSA relative to control
[6] = Induction of alkylation in fluorescein-labelled 5'-ATA-3' double stranded DNA (unknown origin) at 100 uM incubated for 30 mins by EMSA relative to control
[7] = Binding affinity to FAM-labelled 5'-GGG-3' double stranded DNA (unknown origin) assessed as migration of compound from 5'-AGT-3' to 5'-GGC-3' at 100 uM incubated for 30 mins by EMSA
[8] = Induction of alkylation in fluorescein-labelled 5'-GGG-3' double stranded DNA (unknown origin) at 2.5 uM incubated for 30 mins by EMSA relative to control
[9] = Induction of alkylation in fluorescein-labelled 5'-GGG-3' double stranded DNA (unknown origin) at 5 uM incubated for 30 mins by EMSA relative to control
[10] = Induction of alkylation in fluorescein-labelled 5'-GGG-3' double stranded DNA (unknown origin) at 10 uM incubated for 30 mins by EMSA relative to control
[11] = Induction of alkylation in fluorescein-labelled 5'-GGG-3' double stranded DNA (unknown origin) at 25 uM incubated for 30 mins by EMSA relative to control
[12] = Induction of alkylation in fluorescein-labelled 5'-GGG-3' double stranded DNA (unknown origin) at 50 uM incubated for 30 mins by EMSA relative to control
[13] = Reversible binding affinity to fluorescein-labelled 5'-GGG-3' double stranded DNA (unknown origin) at 100 uM incubated for 30 mins in presence of KCN by EMSA
[14] = Induction of alkylation in fluorescein-labelled 5'-GGG-3' double stranded DNA (unknown origin) incubated for 30 mins by EMSA relative to control
[15] = Binding affinity to fluorescein-labelled 5'-GGG-3' double stranded DNA (unknown origin) assessed as formation of compound-dsDNA oligomer complex at five equivalents incubated for 30 mins by EMSA relative to control

Structure (SMILES)	Activity [1]	Activity [2]	Activity [3]	Activity [4]	Activity [5]	Activity [6]	further results
COC1=C(C)C(=O)C2=C(C1=O)[C@H](CNC(=O)[C@H](C)N)N1[C@@H](C#N)[C@@H]3Cc4cc(C)c(OC)c(O)c4[C@H]([C@@H]1C2)N3C	31%	53%	33%	17%	inactive	inactive	–
COc1c(C)cc2c(c1O)[C@@H]1[C@@H]3Cc4cc(C)c(OC)c(O)c4[C@H](CNC(=O)[C@H](C)NC(=O)OCC4c5ccccc5-c5ccccc54)N3[C@@H](C#N)[C@H](C2)N1C	22%	–	–	–	–	–	–
COc1c(C)cc2c(c1O)[C@@H]1[C@@H]3Cc4cc(C)c(OC)c(O)c4[C@H](CNC(=O)[C@H](C)N)N3[C@@H](C#N)[C@H](C2)N1C	> 90%	94%	63%	80%	36%	inactive	Activity [7]: Active; Activity [8]: 10%; Activity [9]: 41%; Activity [10]: 85%; Activity [11]: > 95%; Activity [12]: > 95%; Activity [13]: Active; Activity [14]: Dose-dependent effect; Activity [15]: > 95%
CCCCCCCCC/C=C/COC(=O)N[C@@H](C)C(=O)NC[C@H]1c2c(cc(C)c(OC)c2O)C[C@H]2[C@H]3c4c(cc(C)c(OC)c4O)C[C@@H]([C@H](C#N)N12)N3C	inactive	–	–	–	–	–	–
C=CCOC(=O)N[C@@H](C)C(=O)NC[C@H]1c2c(cc(C)c(OC)c2O)C[C@H]2[C@H]3c4c(cc(C)c(OC)c4O)C[C@@H]([C@H](C#N)N12)N3C	86%	–	–	–	–	–	–
